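Tested at 5 concentrations; 48 h exposure; 96-well plates; endpoints linearly interpolated, else capped at highest concentration. TGI is the concentration that stops growth completely.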
Legend:
Test in all cases: NCI-60 cell line screen, 48 h
PC-3 prostate = test system: PC-3 prostate
SNB-75 CNS = test system: SNB-75 CNS
HOP-62 NSCLC = test system: HOP-62 NSCLC
ACHN renal = test system: ACHN renal
NCI-H522 lung = test system: NCI-H522 lung
MDA-MB-231 breast = test system: MDA-MB-231 breast
NCI-H23 lung = test system: NCI-H23 lung
SK-MEL-5 melanoma = test system: SK-MEL-5 melanoma
HT29 colon = test system: HT29 colon
SR leukemia = test system: SR leukemia
SF-539 CNS = test system: SF-539 CNS
A549 NSCLC = test system: A549 NSCLC
MOLT-4 leukemia = test system: MOLT-4 leukemia
UACC-62 melanoma = test system: UACC-62 melanoma
SN12C renal = test system: SN12C renal
CAKI-1 renal = test system: CAKI-1 renal
RPMI-8226 leukemia = test system: RPMI-8226 leukemia
HCT-15 colon = test system: HCT-15 colon
HOP-92 NSCLC = test system: HOP-92 NSCLC

Row | Compound | TGI (PC-3 prostate) | TGI (SNB-75 CNS) | TGI (HOP-62 NSCLC) | TGI (ACHN renal) | TGI (NCI-H522 lung) | TGI (MDA-MB-231 breast) | TGI (NCI-H23 lung) | TGI (SK-MEL-5 melanoma) | TGI (HT29 colon) | TGI (SR leukemia) | TGI (SF-539 CNS) | TGI (A549 NSCLC) | TGI (MOLT-4 leukemia) | TGI (UACC-62 melanoma) | TGI (SN12C renal) | TGI (CAKI-1 renal) | TGI (RPMI-8226 leukemia) | TGI (HCT-15 colon) | TGI (HOP-92 NSCLC)
1 | COC(=O)CNS(=O)(=O)c1ccc(-c2c3nc(c(-c4ccc(S(=O)(=O)NCC(=O)OC)cc4)c4ccc([nH]4)c(-c4ccc(S(=O)(=O)NCC(=O)OC)cc4)c4nc(c(-c5ccc(S(=O)(=O)NCC(=O)OC)cc5)c5ccc2[nH]5)C=C4)C=C3)cc1 | > 100 µM | > 100 µM | > 100 µM | > 100 µM | > 100 µM | > 100 µM | > 100 µM | > 100 µM | > 100 µM | > 100 µM | > 100 µM | > 100 µM | > 100 µM | > 100 µM | > 100 µM | > 100 µM | > 100 µM | > 100 µM | 
2 | Cc1nn(C(=O)Cc2ccccc2)c2c1C(c1ccc(O)cc1O)SC(N)=N2 (stereo not given) | > 100 µM | > 100 µM | > 100 µM | > 100 µM | > 100 µM | > 100 µM | > 100 µM | > 100 µM | > 100 µM | > 100 µM | > 100 µM | > 100 µM | > 100 µM | > 100 µM | > 100 µM | > 100 µM | > 100 µM | > 100 µM | 
3 | CC(=O)O[C@H]1[C@@H]2OC(=O)[C@@](O)(CC3CCCO3)[C@@H]2CC(=O)[C@](C)(O)CC/C=C(\C)CCC[C@@H]1C (stereo not given in full) | > 100 µM | > 100 µM |  | > 100 µM | 72.4 µM | 63 µM |  | > 100 µM |  |  | 36.7 µM | > 100 µM |  | > 100 µM | > 100 µM | 44.5 µM | > 100 µM | > 100 µM | 87.7 µM
4 | CN(C)CCN(C)c1ccc2c(=O)n(CCN(C)C)c(=O)n3c4ccccc4c(=O)c1c23 | 21.3 µM | 3.5 µM | 1.47 µM | 0.849 µM | 2.8 µM | 4.23 µM | 2.23 µM | 2.71 µM | 3.73 µM |  | 2.15 µM | 22.7 µM | 0.135 µM | 2.6 µM | 2.64 µM | 1.08 µM | 3.32 µM | 10.8 µM | 1.82 µM
5 | C/C=C\C(CC(=O)NCCC1CN(S(=O)(=O)c2ccc(C)cc2)c2ccccc21)CC(=O)OC (stereo not given) | > 100 µM | > 100 µM | > 100 µM | > 100 µM | > 100 µM | > 100 µM | > 100 µM | > 100 µM | > 100 µM |  |  | > 100 µM | > 100 µM | > 100 µM |  | > 100 µM | > 100 µM | > 100 µM | > 100 µM
6 | O=C1NCc2ccccc2S(=O)(=O)n2cccc21 | > 100 µM | > 100 µM | > 100 µM | > 100 µM | > 100 µM | > 100 µM | > 100 µM | > 100 µM | > 100 µM | > 100 µM | > 100 µM | > 100 µM | > 100 µM | > 100 µM | > 100 µM | > 100 µM | > 100 µM | > 100 µM | 
7 | CN(C)CCNC(=O)c1cc([N+](=O)[O-])cc2c1Oc1ccccc1O2 | > 100 µM | 38.9 µM | > 100 µM | > 100 µM | > 100 µM |  | > 100 µM | > 100 µM | > 100 µM | > 100 µM | > 100 µM | > 100 µM | 51.1 µM | 39.2 µM | > 100 µM | > 100 µM | > 100 µM |  | 
8 | CN(C)CCCNc1ccc([N+](=O)[O-])c2nc3ccccc3c(N)c12 | 1.69 µM |  | > 10 µM | 1.61 µM |  | 2.53 µM | 2.78 µM | 2.44 µM | 1.72 µM | > 10 µM | 1.82 µM | 2.37 µM | 3.42 µM | > 10 µM | 7.37 µM | > 10 µM | 2.14 µM | 1.7 µM | 5.08 µM
9 | O=c1ccn([C@@H]2C[C@@H]2CO)c(=O)[nH]1 | > 100 µM | > 100 µM | > 100 µM | > 100 µM | > 100 µM |  | > 100 µM | > 100 µM | > 100 µM | > 100 µM | > 100 µM | > 100 µM |  | > 100 µM | > 100 µM | > 100 µM | > 100 µM | > 100 µM | > 100 µM
10 | O=C1CSC(c2ccc([N+](=O)[O-])cc2)N1c1ccc(-n2c(-c3ccccc3)nc3ccccc3c2=O)cc1 (stereo not given) | > 100 µM |  | > 100 µM | > 100 µM | > 100 µM | > 100 µM | > 100 µM | > 100 µM | > 100 µM | > 100 µM | > 100 µM | > 100 µM | > 100 µM | > 100 µM | > 100 µM | > 100 µM | > 100 µM | > 100 µM | 
11 | Cc1cc(N(CCC#N)CCC#N)ccc1/C(N=Nc1ccc(C(=O)O)cc1)=N\NC(=O)c1cc(Cl)ccc1O | > 100 µM | 53.5 µM | 65.4 µM | > 100 µM | 35.9 µM | 63.1 µM | > 100 µM | > 100 µM | > 100 µM | > 100 µM |  | > 100 µM | > 100 µM | > 100 µM | > 100 µM | > 100 µM | > 100 µM | > 100 µM | 
12 | O=C(c1ccc(Cl)cc1)N(C(=O)N1CCC(c2ccccc2)CC1)c1ccccc1 | 73.8 µM | 9.27 µM |  | > 100 µM |  | > 100 µM | > 100 µM | 35.2 µM | > 100 µM |  | > 100 µM |  | 57.1 µM | > 100 µM | > 100 µM | > 100 µM | 52.3 µM | > 100 µM | 
13 | Cc1ccc(NC2=CC(=O)C(NO)c3ccccc32)cc1 (stereo not given) |  | 22.2 µM | 14.6 µM | 12.5 µM |  | 7.12 µM | 4.22 µM | 2.92 µM | 17.1 µM |  | 8.8 µM | 10.6 µM | 6.23 µM | 4 µM | 10.5 µM | 6.73 µM |  | 10.4 µM | 8.25 µM

Reference: PubChem BioAssay (NCI)
